{
  "source": "patent US20020142033A1",
  "about": "“Method for treating incontinence” (priority 1998, published 2002)",
  "settings": "human, in vivo",
  "data": [
    {"smiles": "CCNCC#CCOC(=O)C(O)(c1ccccc1)C1CCCCC1", "note": "(stereo not shown) [desethyloxybutynin]", "values": [
      {"measurement": "t½ of DESOXY compared to OXY", "value": "shorter t½ life compared to OXY"}
    ]}
  ]
}
